# Tested on: KB
# Assay: Cytotoxicity against human KB cells
# Format: functional, cell-based
row,SMILES,IC50
1,COC(=O)/C1=C\[C@@H]2O[C@@]2(C(C)C)CC/C(C(=O)OC)=C/CC[C@]2(C)O[C@H]2CC1,5 µg/mL
2,COC(=O)/C1=C\C=C(\C(C)C)CCC2=CCC[C@](C)(OC2=O)[C@@H](OC(C)=O)CC1 [EMBLIDE],5 µg/mL
3,COC(=O)/C1=C/C=C(/C(C)C)CCC2=CCC[C@](C)(OC2=O)C(=O)CC1 [SARCRASSIN E],13 µg/mL
4,COC(=O)/C1=C/C=C(/C(C)C)CCC2=CCC[C@](C)(OC2=O)[C@H](OC(C)=O)CC1 [SARCRASSIN D],4 µg/mL

# Reference: ChEMBL document CHEMBL1158084, “Cytotoxic diterpenoids from the soft coral Sarcophyton crassocaule” (J Nat Prod, 2006)
